tested on: male Sprague-Dawley rats; assay: in vivo screen APCC, cholesterol-fed rats, blood cholesterol; conditions: Table 2, dosed at 30 mg/kg unless otherwise noted, high fat, high cholesterol diet with 0.5% cholic acid overnight, blood cholesterol vs vehicle
Text: In one in vivo screen designated APCC, male Sprague-Dawley rats (200 to 225 g) were randomly divided into treatment groups and dosed at 4 PM with either vehicle (CMC/Tween) or suspensions of compounds in vehicle. The normal chow diet was then replaced with a high fat, high cholesterol diet with 0.5% cholic acid. The rats consumed this diet ad libitum during the night and were sacrificed at 8 AM to obtain blood samples for cholesterol analysis using standard procedures. Statistical differences between mean cholesterol values for the same vehicle were determined using analysis of variance followed by Fisher's least significant test.

Compound	APCC (% ΔTC) [%]
(±)-2-Dodecyl-β-phenyl-N-(2,4-6-trimethoxyphenyl)-2H-tetrazole-5-propanamide and (±)-1-dodecyl-β-phenyl-N-(2,4,6-trimethoxyphenyl)-^1H-tetrazole-5-acetamide [Example 45]	-60

target: acyl-CoA: cholesterol acyltransferase (ACAT); assay: in vitro ACAT inhibition, rabbit intestinal microsomes (IAI); format: biochemical; conditions: radiolabeled cholesterol oleate formed from radiolabeled oleic acid
Text: (§1) The test assesses the ability of a test compound to inhibit the acylation of cholesterol by oleic acid by measuring the amount of radiolabeled cholesterol oleate formed from radiolabeled oleic acid in a tissue preparation containing rabbit intestinal microsomes (designated IAI) or from rat liver microsomes (designated LAI).

IC50 [nM]	Compound
69	CCCCCCCCCCCCn1nnc(CCC(=O)Nc2c(OC)cc(OC)cc2OC)n1 [Example 34, 2-Dodecyl-N-(2,4,6-trimethoxyphenyl)-2H-tetrazole-5-propanamide]
210	CCCCCCCCCCCCn1nnnc1CCC(=O)Nc1c(OC)cc(OC)cc1OC [Example 37, 1-Dodecyl-N-(2,4,6-trimethoxyphenyl)-1H-tetrazole-5-propanamide]
2100	CCCCCCCCCCCCCCn1nnc(CCC(=O)Nc2c(OC)cc(OC)cc2OC)n1 [Example 47, 2-tetradecyl-N-(2,4,6-tri-methoxyphenyl)-2H-tetrazole-5-propanamide]
15	CCCCCCCCCCCCCCn1nnc(CC(=O)Nc2c(OC)cc(OC)cc2OC)n1 [Example 49, 2-tetradecyl-N-(2,4,6-tri-methoxyphenyl)-2H-tetrazole-5-acetamide]
1000	CCCCCCCCCCCCCCn1nnnc1CC(=O)Nc1c(OC)cc(OC)cc1OC [Example 50, 1-tetradecyl-N-(2,4,6-tri-methoxyphenyl)-1H-tetrazole-5-acetamide]

The remaining lines, values behind:

Compound	IC50 [nM]
CCCCCCCCCCCCn1nnc(CCC(=O)Nc2c(C(C)C)cccc2C(C)C)n1 [Example 35, N-(2,6-Bis(1-methylethyl)phenyl)-2-dodecyl-2H-tetrazole-5-propanamide]	9
CCCCCCCCCCCCn1nnc(CCC(=O)Nc2ccc(F)cc2F)n1 [Example 36, N-(2,4-Difluorophenyl)-2-dodecyl-2H-tetrazole-5-propanamide]	> 5000
CCCCCCCCCCCCn1nnc(C(C(=O)Nc2c(C(C)C)cccc2C(C)C)(c2ccccc2)c2ccccc2)n1 [Example 46, N-[2,6-Bis(1-methylethyl)phenyl]-2-dodecyl-α,α-diphenyl-2H-tetrazole-5-acetamide]	11000
(±)-2-Dodecyl-β-phenyl-N-(2,4-6-trimethoxyphenyl)-2H-tetrazole-5-propanamide and (±)-1-dodecyl-β-phenyl-N-(2,4,6-trimethoxyphenyl)-^1H-tetrazole-5-acetamide [Example 45]	230

target: acyl-CoA: cholesterol acyltransferase (ACAT); assay: in vitro ACAT inhibition, rat liver microsomes (LAI); format: biochemical; conditions: radiolabeled cholesterol oleate formed from radiolabeled oleic acid
Text: as §1

IC50 [nM]	Compound
21	CCCCCCCCCCCCc1nnn(C(C(=O)Nc2c(OC)cc(OC)cc2OC)c2ccccc2)n1 (racemic) [Example 98, (±)-5-dodecyl-α-phenyl-N-(2,4,6-trimethoxyphenyl)-2H-tetrazole-2-acetamide]
32	CCCCCCCCCCCCc1nnn(C(CCCCC)C(=O)Nc2c(OC)cc(OC)cc2OC)n1 (racemic) [Example 99, (±)-5-dodecyl-α-pentyl-N-(2,4,6-trimethoxyphenyl)-2H-tetrazole-2-acetamide]
56	CCCCCCCCCCCCc1nnn(CC(=O)Nc2c(OC)cc(OC)cc2OC)n1 [Example 97, 5-dodecyl-N-(2,4,6-trimethoxy-phenyl)-2H-tetrazole-2-acetamide]
42	CCCCCCCCCCCCc1nnn(C(C)(C)C(=O)Nc2c(OC)cc(OC)cc2OC)n1 [Example 102, 5-dodecyl-α,α-dimethyl-N-(2,4,6-trimethoxyphenyl)-2H-tetrazole-2-acetamide]

The next lines start with the compound.

Compound	IC50 [nM]
CC(C)c1cccc(C(C)C)c1NC(=O)C(c1ccccc1)n1nnc(C(c2ccccc2)c2ccccc2)n1 (racemic) [Example 90, (±)-N-[2,6-bis(1-methylethyl)phenyl]-5-(diphenylmethyl)-α-phenyl-2H-tetrazole-2-acetamide]	100
CCCCCCCCCCCCc1nnn(C(C(=O)Nc2c(C(C)C)cccc2C(C)C)c2ccccc2)n1 (racemic) [Example 92, (±)-N-[2,6-bis(1-methylethyl)phenyl]-5-dodecyl-α-phenyl-2H-tetrazole-2-acetamide]	15
CCCCCCCCCCCCc1nnn(C(CCCCC)C(=O)Nc2c(C(C)C)cccc2C(C)C)n1 (racemic) [Example 93, (±)-N-[2,6-bis(1-methylethyl)phenyl]-5-dodecyl-α-pentyl-2H-tetrazole-2-acetamide]	22
CCCCCCCCCCCCSc1nnn(C(C(=O)Nc2c(C(C)C)cccc2C(C)C)c2ccccc2)n1 (racemic) [Example 94, (±)-N-[2,6-bis(1-methylethyl)phenyl-5-(dodecylthio)-α-phenyl-2H-tetrazole-2-acetamide]	29
CCCCCCCCCCc1nnn(C(C(=O)Nc2c(OC)cc(OC)cc2OC)c2ccccc2)n1 (racemic) [Example 95, (±)-5-decyl-α-phenyl-N-(2,4,6-trimethoxyphenyl-2H-tetrazole-2-acetamide]	58
COc1cc(OC)c(NC(=O)C(c2ccccc2)n2nnc(C(c3ccccc3)c3ccccc3)n2)c(OC)c1 (racemic) [Example 96, (±)-5-(diphenylmethyl)-α-phenyl-N-(2,4,6-trimethoxyphenyl)-2H-tetrazole-2-acetamide]	190
CCCCCCCCCCCCc1nnn(C(C(=O)Nc2ccc(F)cc2F)c2ccccc2)n1 (racemic) [Example 100, (±)-N-(2,4-difluorophenyl-5-dodecyl-α-phenyl-2H-tetrazole-2-acetamide]	80
CCCCCCCCCCCCSc1nnn(C(C(=O)Nc2c(OC)cc(OC)cc2OC)c2ccccc2)n1 (racemic) [Example 103, (±)-5-(dodecylthio)-α-phenyl-N-(2,4,6-trimethoxyphenyl)-2H-tetrazole-2-acetamide]	49
CCCCCCCCCCCC[S+]([O-])c1nnn(C(C(=O)Nc2c(OC)cc(OC)cc2OC)c2ccccc2)n1 (racemic) [Example 104, (±)-5-(dodecylsulfinyl)-α-phenyl-N-(2,4,6)-trimethoxyphenyl)-2H-tetrazole-2-acetamide]	55
CCCCCCCCCCc1nnn(CC(=O)Nc2c(C(C)C)cccc2C(C)C)n1 [Example 88, N-[2,6-bis(1-methylethyl)phenyl]-5-decyl-2H-tetrazole-2-acetamide]	10
CCCCCCCCCCc1nnnn1CC(=O)Nc1c(C(C)C)cccc1C(C)C [Example 89, N-[2,6-bis(1-methylethyl)phenyl]-5-decyl-1H-tetrazole-1-acetamide]	390
CCCCCCCCCCCCc1nnn(CC(=O)Nc2c(C(C)C)cccc2C(C)C)n1 [Example 91]	6
CCCCCCCCCCCCc1nnn(CC(=O)Nc2ccc(F)cc2F)n1 [Example 101, N-(2,4-difluorophenyl)-5-dodecyl-2H tetrazole-2-acetamide]	> 5000
